Measurements reported in patent US20240197652A1, “KETAMINE IN THE TREATMENT OF […]” (Awakn LS Europe Holdings Limited, priority 2021, published 2024).

Experiments:
Type in all cases: in vivo, human
[1] = Plasma ketamine, HNK and norketamine levels, binge eating disorder subjects (Example 8); conditions: analyte = label; for peak plasma concentration: 100 mg racemic ketamine sublingual; for time of peak plasma concentration: post-administration of 100 mg racemic ketamine sublingual
Protocol: A study was completed on the use of ketamine to treat binge eating disorder. Subjects were assessed for binge eating disorder using the Binge Eating Scale (BES), and included if they received a BES score greater than 15. Three subjects in total were included (BE1-BE3, and interchangeably on FIGS. 5 and 6 as BED1-BED3, these being the same subjects). All three were administered sublingual lozenges comprising 100 mg of racemic ketamine.
Blood samples were collected from all three subjects. Blood samples were analysed to determine ketamine and ketamine metabolite levels, as well as the hormones leptin and ghrelin. Self-report measures were conducted.
The treatment protocol commenced in substantially the same way as disclosed in the ketamine in subjects with gambling disorder study completed in EXAMPLE 7, with the exceptions outlined as follows: No behavioural tasks were completed. Blood samples collected every 10 minutes from the time of administration to 90 minutes post-administration were additionally analysed for leptin and ghrelin. Self-report measures included the Binge Eating Scale, the Adult Attachment Interview (AAI), a 20 question interview about the subject's recollections of their childhood (Sykes and Turner, 2015); the Childhood Trauma Questionnaire; the Morningness-Eveningness Questionnaire (MEQ), a 19-item questionnaire designed to assess when a respondent prefers to wake up or start sleep (American Thoracic Society, 2022); the DSM-5 Binge Eating Disorder diagnostic criteria; and the SPSRQ.

[2] = Mean plasma ketamine, HNK and norketamine, all subjects of Examples 7-10; conditions: 100 mg racemic ketamine sublingual, analyte = label; for concentration at 10 min / concentration at 20 min / concentration at 30 min / concentration at 40 min / concentration at 50 min / concentration at 60 min / concentration at 70 min / concentration at 80 min / concentration at 90 min: human, plasma, other: sublingual
Protocol: (§1) Blood samples were collected every 10 minutes, from 0 minutes (the time of administration) to 90 minutes post-administration. Blood samples at each time point were analysed to determine plasma levels of (2S,6S;2R,6R)-Hydroxynorketamine (HNK).
FIGS. 11-13 illustrate ketamine, HNK, and norketamine levels, respectively, for all subjects of EXAMPLES 7-10, while FIG. 14 illustrates the mean plasma levels of ketamine, HNK, and norketamine for all subjects of EXAMPLES 7-10. Results indicated a mean plasma concentration of ketamine of 104.87 ng/ml at 10 minutes, 230.11 ng/ml at 20 minutes, 267.08 ng/ml at 30 minutes, 271.62 ng/ml at 40 minutes, 288.48 ng/ml at 50 minutes, 272.42 ng/ml at 60 minutes, 263.40 ng/ml at 70 minutes, 227.50 ng/ml at 80 minutes, and 176.91 ng/ml at 90 minutes. Mean HNK was 0 at 10 minutes, 12.22 ng/ml at 20 minutes, 56.73 ng/ml at 30 minutes, 79.10 ng/ml at 40 minutes, 126.20 ng/ml at 50 minutes, 198.87 ng/ml at 60 minutes, 221.08 ng/ml at 70 minutes, 209.14 ng/ml at 80 minutes, and 217.32 ng/ml at 90 minutes. Mean norketamine was 1.92 at 10 minutes, 57.39 ng/ml at 20 minutes, 141.78 ng/ml at 30 minutes, 286.02 ng/ml at 40 minutes, 505.15 ng/ml at 50 minutes, 646.73 ng/ml at 60 minutes, 750.57 ng/ml at 70 minutes, 723.79 ng/ml at 80 minutes, and 653.94 ng/ml at 90 minutes.

[3] = Plasma ketamine, HNK and norketamine levels, gambling disorder subjects (Example 7); conditions: analyte = label; for peak plasma concentration: 100 mg racemic ketamine sublingual; for time of peak plasma concentration: post-administration of 100 mg racemic ketamine sublingual
Protocol: A study was completed on the use of ketamine to treat gambling disorder. Subjects were assessed for gambling disorder using the PGSI. Subjects were included if they received a PGSI score greater than 3. Five subjects in total were included (G1-G5). All five subjects were administered ketamine. Blood samples were collected from all five subjects. Blood samples were analysed to determine ketamine and ketamine metabolite levels, and each subject was assessed post-administration to determine the effectiveness of the treatment.
On Day 3, each subject returned on-site and was administered ketamine. 100 mg of racemic ketamine was administered in as sublingual lozenges.
as §1

[4] = Plasma ketamine, HNK and norketamine levels, gaming disorder subjects (Example 9); conditions: analyte = label; for peak plasma concentration: 100 mg racemic ketamine sublingual; for time of peak plasma concentration: post-administration of 100 mg racemic ketamine sublingual
Protocol: A study was completed on ketamine to treat gaming disorder. Subjects were assessed for gaming disorder using the Internet Gaming Disorder Scale (IGDS) and were included if they received an IGDS score greater than 3. Three subjects in total were included (IG1-IG3). All three were administered sublingual lozenges comprising 100 mg of racemic ketamine.
Blood samples were collected from all three subjects. Blood samples were analysed to determine ketamine and ketamine metabolite levels. Assessments were conducted as below.
The treatment protocol commenced in the same manner as disclosed in the ketamine in subjects with gambling disorder study completed in EXAMPLE 7, with the exceptions as follow: No behavioural tasks were completed. Self-report measures completed during EXAMPLE 9 included Social Phobia Inventory (SPIN), the Craving for Gaming Questionnaire (CGQ), and Generalised Anxiety Disorder-7 (GAD-7) the Sensitivity to Reward and Punishment Scale, and the Childhood Trauma Questionnaire, the Morningness-Eveningness Questionnaire (MEQ).

[5] = subject BE1 (no data at 30 minutes)

NC1(c2ccccc2Cl)CCCCC1=O (racemic) [Norketamine, (R,S)-norketamine]
peak plasma concentration [1, 5]: about 81 ng/ml
time of peak plasma concentration [1, 5]: 90 min
peak plasma concentration ([1]; subject BE2): about 685 ng/ml
time of peak plasma concentration ([1]; subject BE2): 40 min
peak plasma concentration ([1]; subject BE3): about 975 ng/mL
time of peak plasma concentration ([1]; subject BE3): 60 min
concentration at 10 min ([2]; 10 minutes post-administration): 1.92 ng/mL
concentration at 20 min ([2]; 20 minutes post-administration): 57.4 ng/mL
concentration at 30 min ([2]; 30 minutes post-administration): 142 ng/mL
concentration at 40 min ([2]; 40 minutes post-administration): 286 ng/mL
concentration at 50 min ([2]; 50 minutes post-administration): 505 ng/mL
concentration at 60 min ([2]; 60 minutes post-administration): 647 ng/mL
concentration at 70 min ([2]; 70 minutes post-administration): 751 ng/mL
concentration at 80 min ([2]; 80 minutes post-administration): 724 ng/mL
concentration at 90 min ([2]; 90 minutes post-administration): 654 ng/mL
peak plasma concentration ([3]; subject G1): about 592 ng/ml
time of peak plasma concentration ([3]; subject G1): 80 min
peak plasma concentration ([3]; subject G2): about 1,450 ng/ml
time of peak plasma concentration ([3]; subject G2): 70 min
peak plasma concentration ([3]; subject G3): about 574 ng/ml
time of peak plasma concentration ([3]; subject G3): 80 min
peak plasma concentration ([3]; subject G4): about 495 ng/ml
time of peak plasma concentration ([3]; subject G4): 90 min
peak plasma concentration ([3]; subject G5): about 1,079 ng/ml
time of peak plasma concentration ([3]; subject G5): about 90 minutes
peak plasma concentration ([4]; subject IG1): about 627 ng/ml
time of peak plasma concentration ([4]; subject IG1): 70 min
peak plasma concentration ([4]; subject IG2): about 1,040 ng/ml
time of peak plasma concentration ([4]; subject IG2): 50 min
peak plasma concentration ([4]; subject IG3): about 1,116 ng/mL
time of peak plasma concentration ([4]; subject IG3): 60 min

CNC1(c2ccccc2Cl)CCCCC1=O (racemic) [ketamine, 2-(2-chlorophenyl)-2-(methylamino)-cyclohexanone]
peak plasma concentration [1, 5]: about 270 ng/ml
time of peak plasma concentration [1, 5]: 20 min
peak plasma concentration ([1]; subject BE2): about 339 ng/ml
time of peak plasma concentration ([1]; subject BE2): 20 min
peak plasma concentration ([1]; subject BE3): about 208 ng/mL
time of peak plasma concentration ([1]; subject BE3): 60 min
concentration at 10 min ([2]; 10 minutes post-administration): 105 ng/mL
concentration at 20 min ([2]; 20 minutes post-administration): 230 ng/mL
concentration at 30 min ([2]; 30 minutes post-administration): 267 ng/mL
concentration at 40 min ([2]; 40 minutes post-administration): 272 ng/mL
concentration at 50 min ([2]; 50 minutes post-administration): 288 ng/mL
concentration at 60 min ([2]; 60 minutes post-administration): 272 ng/mL
concentration at 70 min ([2]; 70 minutes post-administration): 263 ng/mL
concentration at 80 min ([2]; 80 minutes post-administration): 228 ng/mL
concentration at 90 min ([2]; 90 minutes post-administration): 177 ng/mL
peak plasma concentration ([3]; subject G1): about 250 ng/ml
time of peak plasma concentration ([3]; subject G1): 30 min
peak plasma concentration ([3]; subject G2): about 405 ng/ml
time of peak plasma concentration ([3]; subject G2): 70 min
peak plasma concentration ([3]; subject G3): about 395 ng/ml
time of peak plasma concentration ([3]; subject G3): 80 min
peak plasma concentration ([3]; subject G4): about 291 ng/ml
time of peak plasma concentration ([3]; subject G4): 80 min
peak plasma concentration ([3]; subject G5): about 426 ng/ml
time of peak plasma concentration ([3]; subject G5): about 20 minutes
peak plasma concentration ([4]; subject IG1): about 390 ng/ml
time of peak plasma concentration ([4]; subject IG1): 50 min
peak plasma concentration ([4]; subject IG2): about 301 ng/ml
time of peak plasma concentration ([4]; subject IG2): 50 min
peak plasma concentration ([4]; subject IG3): about 670 ng/mL
time of peak plasma concentration ([4]; subject IG3): 50 min

N[C@@]1(c2ccccc2Cl)CCC[C@@H](O)C1=O [HNK, (2S,6S;2R,6R)-hydroxynorketamine]
peak plasma concentration [1, 5]: about 53 ng/ml
time of peak plasma concentration [1, 5]: 90 min
peak plasma concentration ([1]; subject BE2): about 108 ng/ml
time of peak plasma concentration ([1]; subject BE2): 80 min
peak plasma concentration ([1]; subject BE3): about 244 ng/mL
time of peak plasma concentration ([1]; subject BE3): 90 min
mean plasma concentration ([2]; 10 minutes post-administration): 0 ng/mL
mean plasma concentration ([2]; 20 minutes post-administration): 12.22 ng/mL
mean plasma concentration ([2]; 30 minutes post-administration): 56.73 ng/mL
mean plasma concentration ([2]; 40 minutes post-administration): 79.10 ng/mL
mean plasma concentration ([2]; 50 minutes post-administration): 126.20 ng/mL
mean plasma concentration ([2]; 60 minutes post-administration): 198.87 ng/mL
mean plasma concentration ([2]; 70 minutes post-administration): 221.08 ng/mL
mean plasma concentration ([2]; 80 minutes post-administration): 209.14 ng/mL
mean plasma concentration ([2]; 90 minutes post-administration): 217.32 ng/mL
peak plasma concentration ([3]; subject G1): about 300 ng/ml
time of peak plasma concentration ([3]; subject G1): 80 min
peak plasma concentration ([3]; subject G2): about 319 ng/ml
time of peak plasma concentration ([3]; subject G2): 70 min
peak plasma concentration ([3]; subject G3): about 175 ng/ml
time of peak plasma concentration ([3]; subject G3): 90 min
peak plasma concentration ([3]; subject G4): about 134 ng/ml
time of peak plasma concentration ([3]; subject G4): 90 min
peak plasma concentration ([3]; subject G5): about 615 ng/ml
time of peak plasma concentration ([3]; subject G5): about 60 minutes
peak plasma concentration ([4]; subject IG1): about 287 ng/ml
time of peak plasma concentration ([4]; subject IG1): 90 min
peak plasma concentration ([4]; subject IG2): about 279 ng/ml
time of peak plasma concentration ([4]; subject IG2): 90 min
peak plasma concentration ([4]; subject IG3): about 407 ng/mL
time of peak plasma concentration ([4]; subject IG3): 60 min
